Like-named read-outs stand apart in the source and are kept apart here.
Columns and labels:
A549 cell line = test: Proliferation of A549 (CellTiter Glo); type: cell-based; details: read-out: IC50 μM (A549 Cell Line)
Procedure: (§1) The diterpenoid compounds were tested in A549, a non-small cell lung cancer cell line harboring a K-Ras activating mutation. Briefly, A549 cells at a density of 1,000 cells/well were seeded in 96-well plates and incubated at 37° C. for 24 hours. A series of different concentrations of compound stocks (500×) were prepared by 3-fold serial dilution in DMSO. These compounds were further diluted in culture media and then added to cells so that the final DMSO concentration was not exceeding 0.25%. After 96 hours of incubation, 50 μL of CellTiter Glo reagent (Promega) was added to each well and luminescence was measured after 10 minutes using EnVision (PerkinElmer). Luminescence from cells treated with DMSO alone was set as Max and % of inhibition was calculated as follows: Inhibition %=(Max-Sample value)/Max×100. Data was analyzed using XL-fit software (ID Business Solutions Ltd.) and IC50, relative IC50, and % of top inhibition was calculated. Some of the compounds in this disclosure were very potent in blocking proliferation of A549 lung cancer cells at low nM range. In addition, potency of inhibiting A549 proliferation correlated well with its binding affinity to PKCs for this series of compounds. In other words, higher affinity binders had stronger inhibitory effects on A549 proliferation. This further support the notion that activation, rather than inhibition, of certain PKC isoforms is required to block proliferation of cancer cells, some of which may harbor K-Ras mutations. This is in sharp contrast to previous literature and common belief that inhibition of PKC is necessary to block cancer cell growth (Kang, 2014, New Journal of Science, 2014:1-36). Data presented here is in agreement with recent findings that many loss-of-function but not gain-of-function mutations of PKC isoforms have been identified in many human cancers (Antal et al., 2015, Cell, 160:489-502).

C1b domain of human PKCδ = target: T1, C1b domain of human PKCδ (Homo sapiens, UniProt Q05655); test: biochemical; type: binding; details: 3H-PDBu competition
T1 construct: Genes encoding C1b domains of human PKCα, δ, ε, θ, and PKD1 (PKCμ) were synthesized; made in house; host or cells: E. coli BL21(DE3)
T1 sequence (Q05655 230-280 limits assumed): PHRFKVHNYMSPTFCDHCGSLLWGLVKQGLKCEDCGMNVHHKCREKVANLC
Procedure: Compounds described in this disclosure were tested for binding affinity to C1b domain of PKC isoforms. Compound binding affinity to C1b domain of PKC isoforms was derived from competitive binding assay using radioactive tracer ^3H-PDBu and recombinant GST-C1b or full-length of human PKC proteins based on modified procedures from Methods in Molecular Biology, vol.
Genes encoding C1b domains of human PKCα, δ, ε, θ, and PKD1 (PKCμ) were synthesized and inserted into pGEX-2TK or pGEX-4T1 vectors for expression and production of GST-C1b proteins in E. coli BL21(DE3) via IPTG induction. The target proteins were purified by glutathione sepharose 4B and followed by ion exchange chromatography if needed to achieve purity >70%. Aliquots of the purified proteins were stored at −80 degree for binding assay (storage buffer: 20 mM Tris pH 8.0, 200 mM NaCl, 10% glycerol, 1 mM DTT).
The plate was incubated at 37° C. on a shaker at 300 rpm for 10 minutes and then put on ice for 20 minutes. […] The bottom of the filter plate was sealed and 50 μL of MicroScint-20 (PerkinElmer) cocktail was added to each well. ^3H-PDBu trapped in each well was counted using PerkinElmer MicroBeta2 Reader. Data were analyzed using GraphPad Prism5 with the model “log(inhibitor) vs. response-variable slope” to fit the IC50, and then IC50 was transformed to Ki using Cheng-Prusoff equation: Ki=IC50/(1+added radio ligand/Kd). Kd is the binding affinity of each protein preparation to ^3H-PDBu, determined experimentally.

[1] = test system: NFκB-driven transcription in HeLa-NFκB luciferase reporter cell line; test: NFκB luciferase reporter assay; details: for block of NFκB activation induced by PKC activator compounds: PKC inhibitor added at the same time as the PKC activator compounds; for EC50: Homo sapiens, HeLa, 16 h, read-out: NFκB-luc HeLa cells EC50 (μM)
Procedure: A HeLa-NFκB luciferase reporter cell line (Wuxi Biology) was used to assess a group of PKC activator compounds for their ability to activate NFκB-driven transcription. […] One set of cells was assayed for luciferase activity (Promega, Cat #E1500) and the other set was assayed to determine the number of viable cells (for cell number normalization) using CellTiter-Glo (CTG) kit (Promega, Cat #G7570) according to manufacture's procedures. Normalized data (luciferase value/CTG value) were analyzed using GraphPad Prism5 to calculate EC50 for each compound (see Table 8).
To assess if activation of PKC is required for these compounds to activate NFκB, several PKC inhibitors including broad-spectrum and conventional PKC inhibitors were tested. In the assay described above, PKC inhibitors were added at the same time as the PKC activator compounds.

human PBMC cells = test: Cytokine/chemokine gene expression in human PBMC (TaqMan); type: cell-based; details: 4 h, 1 μM;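 for Gene Relative Expression CCL2: 2^-ΔΔCt fold change vs DMSO control normalized to 18S and GAPDH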;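 for Gene Relative Expression GM-CSF: 2^-ΔΔCt fold change vs DMSO control normalized to 18S and GAPDH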;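 for Gene Relative Expression IFN-α: 2^-ΔΔCt fold change vs DMSO control normalized to 18S and GAPDH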;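 for Gene Relative Expression IFNγ: 2^-ΔΔCt fold change vs DMSO control normalized to 18S and GAPDH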
Procedure: Each treatment condition was performed in duplicates.

HL-60 (Leukemia) = test: Proliferation of HL-60; type: cell-based; details: for IC50: Homo sapiens, HL-60, read-out: IC50 HL-60 (Leukemia)
Procedure: as §1
(§2) The compounds in this disclosure were tested for their potency in blocking proliferation of a few other cancer cells lines, including K-Ras mutant pancreatic cell lines Panc2.13 and KP-4, leukemia cell line HL-60, and lymphoma cell lines Namalwa and Mino. Similar procedures as in Example 67 were followed. Initial cell numbers seeded in 96-well plates were different for different cell lines: 3000 cells/well for Panc2.13; 800-1000 cells/well for KP-4; 5000 cells/well for HL-60; 5000-10000 cells/well for Namalwa and Mino. A ratio of (IC50 of K101)/(IC50 of compound) (data in parenthesis in Table 5) was used to normalize the compound potency from different assay batches to a common comparator K101.

Namalwa (Lymphoma) = test: Proliferation of Namalwa; type: cell-based; details: for IC50: read-out: IC50 Namalwa (Lymphoma)
Procedure: as §1, §2

Mino (Lymphoma) = test: Proliferation of Mino; type: cell-based; details: for IC50: Homo sapiens, MINO, read-out: IC50 Mino (Lymphoma)
Procedure: as §1, §2

[2] = Homo sapiens, A549, 96 hours, CellTiter Glo

CC1=C[C@H]2[C@@]3(O)[C@H](C)C[C@]4(OC(=O)[C@@H](N)CCCCCCc5ccccc5)[C@H]([C@@H]3C=C(COC(=O)[C@@H](N)C(C)C)C[C@]2(O)C1=O)C4(C)C
IC50 (A549 cell line; [2]): 0.01 to 0.03 µM

CC1=C[C@H]2[C@@]3(O)[C@H](C)C[C@]4(OC(=O)C[C@@H](N)c5ccccc5)[C@H]([C@@H]3C=C(CO)C[C@]2(O)C1=O)C4(C)C
IC50 (A549 cell line; Homo sapiens, A549, 96 h): 2 to 5 µM

CC1=C[C@H]2[C@@]3(O)[C@H](C)C[C@]4(OC(=O)[C@@H](N)CCS(C)(=O)=O)[C@H]([C@@H]3C=C(CO)C[C@]2(O)C1=O)C4(C)C
IC50 (A549 cell line; Homo sapiens, A549, 96 h): > 30 µM

CC1=C[C@H]2[C@@]3(O)[C@H](C)C[C@]4(OC(=O)[C@@H](N)CC(C)(C)C)[C@H]([C@@H]3C=C(CO)C[C@]2(O)C1=O)C4(C)C
Ki (C1b domain of human PKCδ): 10 to 30 nM
IC50 (A549 cell line; Homo sapiens, A549, 96 h): 0.2 to 0.6 µM

CN1CCN(c2nc(C3=C(c4c[nH]c5ccccc45)C(=O)NC3=O)c3ccccc3n2)CC1 [Sotrastaurin, reference compound]
block of NFκB activation induced by PKC activator compounds [1]: completely block

COc1ccc2c(c1)c(C1=C(c3c[nH]c4ccccc34)C(=O)NC1=O)cn2CCCN(C)C [Gö6983, reference compound]
block of NFκB activation induced by PKC activator compounds [1]: completely block

CC1=C[C@H]2[C@@]3(O)[C@H](C)C[C@]4(OC(=O)CCc5cnn(C)c5)[C@H]([C@@H]3C=C(CO)C[C@]2(O)C1=O)C4(C)C
IC50 (A549 cell line; Homo sapiens, A549, 96 h): 2 to 5 µM

CC1=C[C@H]2[C@@]3(O)[C@H](C)C[C@]4(O)[C@H]([C@@H]3C=C(CO)C[C@]2(O)C1=O)C4(C)C
IC50 (A549 cell line; Homo sapiens, A549, 96 h): > 30 µM

Cn1c2ccccc2c2c3c(c4c5ccccc5n(CCC#N)c4c21)CNC3=O [Compound G66976, G66976, reference compound]
block of NFκB activation induced by PKC activator compounds [1]: unable to block

CC1=C[C@H]2[C@@]3(O)[C@H](C)C[C@]4(OC(=O)[C@@H](N)CC5CCC5)[C@H]([C@@H]3C=C(CO)C[C@]2(O)C1=O)C4(C)C
IC50 (A549 cell line; Homo sapiens, A549, 96 h): 1 to 2 µM

CC1=C[C@H]2[C@@]3(O)[C@H](C)C[C@]4(OC(=O)[C@@H](N)C56CC(F)(C5)C6)[C@H]([C@@H]3C=C(CO)C[C@]2(O)C1=O)C4(C)C
IC50 (A549 cell line; 96 hours, CellTiter Glo): 10 to 30 µM

CC1=C[C@H]2[C@@]3(O)[C@H](C)C[C@]4(OC(=O)[C@H](CC5CCCCC5)N(C)C)[C@H]([C@@H]3C=C(CO)C[C@]2(O)C1=O)C4(C)C
IC50 (A549 cell line; Homo sapiens, A549, 96 h): 0.6 to 1 µM

CSCC[C@H](N)C(=O)O[C@@]12C[C@@H](C)[C@@]3(O)[C@@H](C=C(CO)C[C@]4(O)C(=O)C(C)=C[C@@H]34)[C@@H]1C2(C)C
IC50 (A549 cell line; Homo sapiens, A549, 96 h): 5 to 10 µM

CC1=C[C@H]2[C@@]3(O)[C@H](C)C[C@]4(OC(=O)[C@H](N)C56CC(F)(C5)C6)[C@H]([C@@H]3C=C(CO)C[C@]2(O)C1=O)C4(C)C
IC50 (A549 cell line; 96 hours, CellTiter Glo): 10 to 30 µM

CC1=C[C@H]2[C@@]3(O)[C@H](C)C[C@]4(OC(=O)CCc5c[nH]c6ncccc56)[C@H]([C@@H]3C=C(CO)C[C@]2(O)C1=O)C4(C)C
IC50 (A549 cell line; Homo sapiens, A549, 96 h): 2 to 5 µM

CC1=C[C@H]2[C@@]3(O)[C@H](C)C[C@]4(OC(=O)[C@@H](N)C56CC(C(F)(F)F)(C5)C6)[C@H]([C@@H]3C=C(CO)C[C@]2(O)C1=O)C4(C)C
IC50 (A549 cell line; [2]): 0.06 to 0.1 µM

CCCCCCCCCCCCCCCCCCC(CC(=O)O[C@@]12C[C@@H](C)[C@@]3(O)[C@@H](C=C(CO)C[C@]4(O)C(=O)C(C)=C[C@@H]34)[C@@H]1C2(C)C)C(=O)O (stereo partly shown)
IC50 (A549 cell line; Homo sapiens, A549, 96 h): 5 to 10 µM

CCOCc1nc2c(N)nc3ccccc3c2n1CC(C)(C)O [Resiquimod, reference compound]
Gene Relative Expression CCL2 (human PBMC cells): 3.73
Gene Relative Expression GM-CSF (human PBMC cells): 8.79
Gene Relative Expression IFN-α (human PBMC cells): 1.47
Gene Relative Expression IFNγ (human PBMC cells): 1.28
Gene Relative Expression IL-1β (human PBMC cells): 101.63
Gene Relative Expression IL-2 (human PBMC cells): 1.21
Gene Relative Expression IL-6 (human PBMC cells): 487.14
Gene Relative Expression IL-8 (human PBMC cells): 9.87
Gene Relative Expression IL-10 (human PBMC cells): 5.65
Gene Relative Expression IL-12p40 (human PBMC cells): 786.39
Gene Relative Expression IL-12p70 (human PBMC cells): 2.48
Gene Relative Expression IL-13 (human PBMC cells): 3.52
Gene Relative Expression IL-18 (human PBMC cells): 1.33
Gene Relative Expression ISG15 (human PBMC cells): 14.75
Gene Relative Expression MIP1a (CCL3) (human PBMC cells): 47.71
Gene Relative Expression MX1 (human PBMC cells): 17.00
Gene Relative Expression OAS1 (human PBMC cells): 12.66
Gene Relative Expression TNF-α (human PBMC cells): 7.38

CC1=C[C@H]2[C@@]3(O)[C@H](C)C[C@]4(OC(=O)CCCc5ccccc5)[C@H]([C@@H]3C=C(CO)C[C@]2(O)C1=O)C4(C)C
IC50 (A549 cell line; Homo sapiens, A549, 96 h): 0.01 to 0.03 µM
ratio (IC50 of K101)/(IC50 of compound) HL-60 (HL-60 (Leukemia)): 32.7
IC50 (HL-60 (Leukemia)): 10 to 30 nM
ratio (IC50 of K101)/(IC50 of compound) Namalwa (Namalwa (Lymphoma)): 8.63
IC50 (Namalwa (Lymphoma)): 1 to 10 nM
ratio (IC50 of K101)/(IC50 of compound) Mino (Mino (Lymphoma)): 37.5
IC50 (Mino (Lymphoma)): 1 to 10 nM
EC50 [1]: 0.01 to 0.03 µM

CC1=C[C@H]2[C@@]3(O)[C@H](C)C[C@]4(OC(=O)[C@H](O)Cc5ccccc5)[C@H]([C@@H]3C=C(CO)C[C@]2(O)C1=O)C4(C)C
IC50 (A549 cell line; Homo sapiens, A549, 96 h): 2 to 5 µM

CC1=C[C@H]2[C@@]3(O)[C@H](C)C[C@]4(OC(=O)[C@@H](N)CC5CCCC5)[C@H]([C@@H]3C=C(CO)C[C@]2(O)C1=O)C4(C)C
IC50 (A549 cell line; Homo sapiens, A549, 96 h): 0.1 to 0.2 µM

CC1=C[C@H]2[C@@]3(O)[C@H](C)C[C@]4(OC(=O)[C@@H](N)C5Cc6ccccc6C5)[C@H]([C@@H]3C=C(CCl)C[C@]2(O)C1=O)C4(C)C
IC50 (A549 cell line; 96 hours, CellTiter Glo): 0.06 to 0.1 µM

CC1=C[C@H]2[C@@]3(O)[C@H](C)C[C@]4(OC(=O)C(Cc5ccccc5)C(=O)O)[C@H]([C@@H]3C=C(CO)C[C@]2(O)C1=O)C4(C)C (stereo partly shown)
IC50 (A549 cell line; Homo sapiens, A549, 96 h): 1 to 2 µM

CC1=C[C@H]2[C@@]3(O)[C@H](C)C[C@]4(OC(=O)CCc5ccc(C(F)(F)F)cc5)[C@H]([C@@H]3C=C(CO)C[C@]2(O)C1=O)C4(C)C
IC50 (A549 cell line; Homo sapiens, A549, 96 h): 0.01 to 0.03 µM
ratio (IC50 of K101)/(IC50 of compound) HL-60 (HL-60 (Leukemia)): 72
IC50 (HL-60 (Leukemia)): 1 to 10 nM
ratio (IC50 of K101)/(IC50 of compound) Namalwa (Namalwa (Lymphoma)): 13.8
IC50 (Namalwa (Lymphoma)): 1 to 10 nM
ratio (IC50 of K101)/(IC50 of compound) Mino (Mino (Lymphoma)): 75
IC50 (Mino (Lymphoma)): < 1 nM
EC50 [1]: 0.01 to 0.03 µM

CC1=C[C@H]2[C@@]3(O)[C@H](C)C[C@]4(OC(=O)C5CC6(CNC6)C5)[C@H]([C@@H]3C=C(CO)C[C@]2(O)C1=O)C4(C)C
IC50 (A549 cell line; Homo sapiens, A549, 96 h): > 30 µM

CC1=C[C@H]2[C@@]3(O)[C@H](C)C[C@]4(OC(=O)CCCCCCCCCCC(=O)O)[C@H]([C@@H]3C=C(CO)C[C@]2(O)C1=O)C4(C)C
IC50 (A549 cell line; Homo sapiens, A549, 96 h): 10 to 30 µM

Source: patent US20240197666A1, “DITERPENOID COMPOUNDS THAT ACT ON PROTEIN KINASE C (PKC)” (K-Gen Therapeutics, Inc., priority 2021, published 2024)
